From patent US8273761B2, “Tricyclic compound and medical use thereof” (Takeda Pharmaceutical Company Limited, priority 2006, dated 2012)

molecular target: T1, human melatonin 1 receptors (human MT1 receptors) (Homo sapiens, UniProt P48039); assay: Melatonin receptor binding inhibitory test (MT1); conditions: 2-[125I] Iodomelatonin 400 pM solution, membrane fraction of CHO-hMelR7 cells, 25° C. for 2.5 hr
T1 construct: expressed in transfected cells
Method: Biochim Biophys Acta. Vol. 1219(2), pp. 251-259, 1994) to give plasmid pAKKO-hMelR7 for animal cell expression. CHO/dhfr-cells (ATCC, #CRL-9096) were plated at a concentration of 0.3×10^6 cells/dish in a 6 cm culture dish (Becton Dickinson), and cultured under the conditions of 37° C., 5% CO2 for 48 hr. The cells were transfected with pAKKO-hMelR7 plasmid DNA (5 μg) using […] Transfection Kit (Amersham, #27-9268-01). The transfected cells were cultured in Dulbecco's modified Eagle medium (DMEM) (Sigma, #D6046) containing 10% dialyzed FBS ([…]), 1× Non-Essential Amino Acid (Invitrogen, #11140-050) and 50 μg/mL Gentamycin (Invitrogen, #15750-060), and the cell line that stably expressed the plasmid gene was selected. By a receptor binding assay using 2-[^125I] […] (3) Preparation of Cellular Membrane Fraction of CHO Cell (CHO-hMelR7 and CHO-hMT2) Stably Expressing Human MT1 and MT2 Receptors CHO-hMelR7 and CHO-hMT2 cells were plated using Cellfactory (Nunc, #170009) under the conditions of 1×10^8 cells/2000 mL/flask. The cells were grown to confluent, and recovered by the following method. As the medium for CHO-hMelR7 and CHO-hMT2, MEM α containing 10% FBS and penicillin/streptomycin was used. 300 ng/mL of geneticin was added to the medium for CHO-hMT2. The medium was discarded, cells were washed twice with 200 mL of EDTA/PBS(-), 200 mL of EDTA/PBS(-) was further added, and the cells were stood still at room temperature for 20 min until they were released. The cells were recovered in four 50 mL tubes (Becton Dickinson, #352070), and centrifuged at 1,500 rpm for 10 min at 4° C. using a low speed cooling centrifuge (Hitachi, CF7D2). The supernatant was discarded, the pellets in the four tubes were suspended in 10 mL of PBS(-), and combined in one tube (Becton Dickinson, #352070). The mixture was further centrifuged at 1,500 rpm for 10 min at 4° C., and the obtained pellets were suspended in 20 mL of ice-cooled homogenizing buffer [10 mM NaHCO3, 5 mM EDTA, Protease inhibitor Complete (Roche), pH 7.4]. The cell suspension was homogenized 3 times using a polytron homogenizer at 20,000 rpm for 30 sec. The obtained homogenate was centrifuged (2,000 rpm, 10 min, 4° C.) using a low speed cooling centrifuge. The supernatant was recovered in an ultracentrifugation tube and ultracentrifuged (40,000 rpm, 60 min, 4° C.) using an ultracentrifuge (Beckman, […]). To the obtained pellets was added a suspending buffer [50 mM Tris-HCl, 1 mM EDTA, Protease inhibitor Complete (Roche), pH 7.4], and the pellets were suspended by pipetting. The protein concentration of this suspension was measured, diluted to 2 mg/mL to give cellular membrane fractions of CHO-hMelR7 and CHO-hMT2 cells. […] Protein was quantified using BCA protein assay kit (Pierce) with BSA as the standard. (4) Preparation of Membrane Fraction Suspension Immediately before use, the membrane fractions of CHO-hMelR7 and CHO-hMT2 cells of the above-mentioned (3) were diluted 20-fold with assay buffer (50 mM Tris-HCl, pH 7.7). (5) Preparation of 2-[^125I] […] (6) Binding Reaction The assay buffer (80 μL) of the above-mentioned (4) was added to each well of a 96-well plate (type 3363, Corning). […] (7) Measurement Using a cell harvester (PerkinElmer), the binding reaction mixture in each well of the 96-well plate was transferred to a treated (immersed in 50 mM Tris, pH 7.7 in advance) filter plate (UniFilter GF/C, PerkinElmer) and filtered. After filtration, the plate was washed 4 times with the assay buffer, and dried in a dryer (42° C.) for 2 hr or more. 25 μL of a liquid scintillator (MicroScint O, PerkinElmer) was added to each well of the filter plate after drying, and the luminescence of scintillator was measured by TopCount (PerkinElmer) for 1 min. Specific binding is a value obtained by subtracting nonspecific binding from the total binding.

T1 sequence (P48039 whole entry): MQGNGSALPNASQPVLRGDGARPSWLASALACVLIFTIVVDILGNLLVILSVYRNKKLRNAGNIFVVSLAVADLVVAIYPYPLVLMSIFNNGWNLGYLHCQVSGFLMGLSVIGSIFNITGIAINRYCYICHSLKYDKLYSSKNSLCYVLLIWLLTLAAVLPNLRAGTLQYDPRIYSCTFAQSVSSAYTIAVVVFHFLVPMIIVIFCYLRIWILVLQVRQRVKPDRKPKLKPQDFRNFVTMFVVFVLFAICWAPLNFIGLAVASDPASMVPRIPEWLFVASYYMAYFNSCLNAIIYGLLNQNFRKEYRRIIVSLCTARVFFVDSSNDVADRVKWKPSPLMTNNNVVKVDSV

IC50 | SMILES
≤ 100 nM | CC(=O)NCCC1CCc2cnc3c(c21)CCO3 (single isomer, unassigned) [Example 20, optically active N-[2-(1,6,7,8-tetrahydro-2H-cyclopenta[d]furo[2,3-b]pyridin-8-yl)ethyl]acetamide]
≤ 100 nM | CCC(=O)NCCC1CCc2cnc3c(c21)CCO3 (single isomer, unassigned) [Example 23, optically active N-[2-(1,6,7,8-tetrahydro-2H-cyclopenta[d]furo[2,3-b]pyridin-8-yl)ethyl]propanamide]
≤ 100 nM | CCC(=O)NCCc1c(-c2ccccc2)nn2ccc3occc3c12 [Example 2, N-[2-(2-phenylfuro[3,2-c]pyrazolo[1,5-a]pyridin-1-yl)ethyl]propanamide]
≤ 100 nM | CC(=O)NCCc1cnn2ccc3c(c12)CCO3 [Example 3, N-[2-(8,9-dihydrofuro[3,2-c]pyrazolo[1,5-a]pyridin-1-yl)ethyl]acetamide]
≤ 100 nM | CCC(=O)NCCc1cnn2ccc3c(c12)CCO3 [Example 4, N-[2-(8,9-dihydrofuro[3,2-c]pyrazolo[1,5-a]pyridin-1-yl)ethyl]propanamide]
≤ 100 nM | CCCC(=O)NCCc1cnn2ccc3c(c12)CCO3 [Example 5, N-[2-(8,9-dihydrofuro[3,2-c]pyrazolo[1,5-a]pyridin-1-yl)ethyl]butanamide]
≤ 100 nM | CCC(=O)NCCc1c(-c2ccccc2)nn2ccc3c(c12)CCO3 [Example 8, N-[2-(2-phenyl-8,9-dihydrofuro[3,2-c]pyrazolo[1,5-a]pyridin-1-yl)ethyl]propanamide]
≤ 100 nM | CC(=O)NCCc1c(-c2ccc(F)cc2)nn2ccc3c(c12)CCO3 [Example 15, N-{2-[2-(4-fluorophenyl)-8,9-dihydrofuro[3,2-c]pyrazolo[1,5-a]pyridin-1-yl]ethyl}acetamide]
≤ 100 nM | CCC(=O)NCCc1c(-c2ccc(F)cc2)nn2ccc3c(c12)CCO3 [Example 16, N-{2-[2-(4-fluorophenyl)-8,9-dihydrofuro[3,2-c]pyrazolo[1,5-a]pyridin-1-yl]ethyl}propanamide]
≤ 100 nM | CC(=O)NCCc1c(-c2ccccc2)cn2ccc3c(c12)CCO3 [Example 17, N-[2-(8-phenyl-1,2-dihydrofuro[2,3-g]indolizin-9-yl)ethyl]acetamide]
≤ 100 nM | CCC(=O)NCCC1CCc2cnc3c(c21)CCO3 (stereo not drawn) [Example 22, N-[2-(1,6,7,8-tetrahydro-2H-cyclopenta[d]furo[2,3-b]pyridin-8-yl)ethyl]propanamide]
≤ 100 nM | CCCC(=O)NCCC1CCc2cnc3c(c21)CCO3 (stereo not drawn) [Example 25, N-[2-(1,6,7,8-tetrahydro-2H-cyclopenta[d]furo[2,3-b]pyridin-8-yl)ethyl]butanamide]
≤ 100 nM | CCC(=O)NCCC1=CCc2cnc3c(c21)CCO3 [Example 29, N-[2-(1,6-dihydro-2H-cyclopenta[d]furo[2,3-b]pyridin-8-yl)ethyl]propanamide]
≤ 100 nM | CC(=O)NCCC1=C(C(C)C)Cc2cnc3c(c21)CCO3 [Example 30, N-[2-(7-isopropyl-1,6-dihydro-2H-cyclopenta[d]furo[2,3-b]pyridin-8-yl)ethyl]acetamide]
≤ 100 nM | CCC(=O)NCCC1=C(C(C)C)Cc2cnc3c(c21)CCO3 [Example 31, N-[2-(7-isopropyl-1,6-dihydro-2H-cyclopenta[d]furo[2,3-b]pyridin-8-yl)ethyl]propanamide]
≤ 100 nM | CCc1nn2ccc3c(c2c1C(C)CNC(C)=O)CCO3 (stereo not drawn) [Example 37, N-[2-(2-ethyl-8,9-dihydrofuro[3,2-c]pyrazolo[1,5-a]pyridin-1-yl)propyl]acetamide]
≤ 100 nM | CCC(=O)NCC(C)c1c(CC)nn2ccc3c(c12)CCO3 (stereo not drawn) [Example 38, N-[2-(2-ethyl-8,9-dihydrofuro[3,2-c]pyrazolo[1,5-a]pyridin-1-yl)propyl]propanamide]
≤ 100 nM | CCc1nn2ccc3oc(C)cc3c2c1CCNC(C)=O [Example 39, N-[2-(2-ethyl-8-methylfuro[3,2-c]pyrazolo[1,5-a]pyridin-1-yl)ethyl]acetamide]
